The test system of this series is CCRIS mutagenicity, Ames/micronucleus/aberration tests. Kind of series: CCRIS mutagenicity studies.
Setting [1] is: Test System: AMES SALMONELLA TYPHIMURIUM, Strain/Indicator: TA98, Metabolic Activation: NONE, Method: PREINCUBATION
The mark [2] stands for this setting: Test System: AMES SALMONELLA TYPHIMURIUM, Strain/Indicator: TA100, Metabolic Activation: NONE, Method: PREINCUBATION

Molecules are shown by their SMILES. The source made the active and inactive calls. How the calls were made is not given here.

In the case of `COC(=O)C1=C(C)NC(COC(N)=O)=C(C(=O)OC(C)C)C1c1cccc(Cl)c1Cl` (stereo not given), the mutagenic call is “inactive; negative” under setting [1]; “inactive; negative” (Test System: AMES SALMONELLA TYPHIMURIUM, Strain/Indicator: TA98, Metabolic Activation: RAT, LIVER, S-9, PHENOBARBITAL AND 5,6-BENZOFLAVONE, Method: PREINCUBATION); “inactive; negative” under setting [2]; “inactive; negative” (Test System: AMES SALMONELLA TYPHIMURIUM, Strain/Indicator: TA100, Metabolic Activation: RAT, LIVER, S-9, PHENOBARBITAL AND 5,6-BENZOFLAVONE, Method: PREINCUBATION); “inactive; negative” (Test System: AMES SALMONELLA TYPHIMURIUM, Strain/Indicator: TA1535, Metabolic Activation: NONE, Method: PREINCUBATION); “inactive; negative” (Test System: AMES SALMONELLA TYPHIMURIUM, Strain/Indicator: TA1535, Metabolic Activation: RAT, LIVER, S-9, PHENOBARBITAL AND 5,6-BENZOFLAVONE, Method: PREINCUBATION). Further, the mutagenic call reads like this: (Test System: AMES SALMONELLA TYPHIMURIUM, Strain/Indicator: TA1537, Metabolic Activation: NONE, Method: PREINCUBATION) “inactive; negative”; (Test System: AMES SALMONELLA TYPHIMURIUM, Strain/Indicator: TA1537, Metabolic Activation: RAT, LIVER, S-9, PHENOBARBITAL AND 5,6-BENZOFLAVONE, Method: PREINCUBATION) “inactive; negative”; (Test System: E. COLI, Strain/Indicator: WP2 UVRA, Metabolic Activation: NONE, Method: PREINCUBATION) “inactive; negative”; (Test System: E. COLI, Strain/Indicator: WP2 UVRA, Metabolic Activation: RAT, LIVER, S-9, PHENOBARBITAL AND 5,6-BENZOFLAVONE, Method: PREINCUBATION) “inactive; negative”.

Consider `Cc1cc2nc3ccc(C)c(N)c3nc2cc1N`, for which the mutagenic call by setting is: under setting [1], “inactive; negative”; (Test System: AMES SALMONELLA TYPHIMURIUM, Strain/Indicator: TA98, Metabolic Activation: RAT, LIVER, S-9, PCB, Method: PREINCUBATION) “active; positive”.

Take `O=[N+]([O-])c1ccc(N=N/C(=N\Nc2ccc(I)cc2)c2ccccc2)cc1`: the mutagenic call runs as follows: (Test System: AMES SALMONELLA TYPHIMURIUM, Strain/Indicator: TA97, Metabolic Activation: NONE, Method: SPOT TEST) “inactive; negative”; (Test System: AMES SALMONELLA TYPHIMURIUM, Strain/Indicator: TA97, Metabolic Activation: RAT, LIVER, S-9, PHENOBARBITAL, Method: SPOT TEST) “inactive; negative”; under setting [1], “inactive; negative”; (Test System: AMES SALMONELLA TYPHIMURIUM, Strain/Indicator: TA98, Metabolic Activation: NONE, Method: SPOT TEST) “inactive; negative”; (Test System: AMES SALMONELLA TYPHIMURIUM, Strain/Indicator: TA98, Metabolic Activation: RAT, LIVER, S-9, PHENOBARBITAL, Method: PREINCUBATION) “inactive; negative”; (Test System: AMES SALMONELLA TYPHIMURIUM, Strain/Indicator: TA98, Metabolic Activation: RAT, LIVER, S-9, PHENOBARBITAL, Method: SPOT TEST) “inactive; negative”. Also, the mutagenic call is, setting by setting: under setting [2], “inactive; negative”; (Test System: AMES SALMONELLA TYPHIMURIUM, Strain/Indicator: TA100, Metabolic Activation: NONE, Method: SPOT TEST) “inactive; negative”; (Test System: AMES SALMONELLA TYPHIMURIUM, Strain/Indicator: TA100, Metabolic Activation: RAT, LIVER, S-9, PHENOBARBITAL, Method: PREINCUBATION) “inactive; negative”; (Test System: AMES SALMONELLA TYPHIMURIUM, Strain/Indicator: TA100, Metabolic Activation: RAT, LIVER, S-9, PHENOBARBITAL, Method: SPOT TEST) “inactive; negative”; (Test System: AMES SALMONELLA TYPHIMURIUM, Strain/Indicator: TA102, Metabolic Activation: NONE, Method: SPOT TEST) “inactive; negative”; (Test System: AMES SALMONELLA TYPHIMURIUM, Strain/Indicator: TA102, Metabolic Activation: RAT, LIVER, S-9, PHENOBARBITAL, Method: SPOT TEST) “inactive; negative”.

Turning to `O[C@H]1[C@H](O)COC(NCCc2c[nH]c3ccccc23)[C@@H]1O` (stereo not given in full), the mutagenic call (Test System: AMES SALMONELLA TYPHIMURIUM, Strain/Indicator: TA100, Metabolic Activation: NONE, Method: LIQUID INCUBATION) is “active; positive”.

These data come from PubChem BioAssay AID1259407 (Chemical Carcinogenesis Research Information System (CCRIS), 2018).
